From PubChem BioAssay AID1918957 (Molecular Pharmacology Branch, DTP, NCI, 2023)

System: NCI-H1876 complex spheroid viability
Assay: Anticancer human tumor NCI-H1876 cell line growth inhibition [LSD1];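 also: spheroids exposed to compounds for one week before readout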;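 as to viability, T/C: 100% = DMSO vehicle-treated spheroids so lower means fewer viable cells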
Conditions: for IC50: curve of first compound; for viability, T/C: stronger effect = lower value
Summary of the method: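 Multicellular complex spheroids of tumor cells with human endothelial cells (HUVEC) and mesenchymal stem cells; the LSD1 inhibitor iadademstat was combined with standard-of-care or investigational agents. Top concentration at or near clinical Cmax, half-log dilutions; final DMSO ≤0.25%.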

[1] = second compound 0.1 µM, first compound 0.00949 µM
[2] = second compound 0.1 µM, first compound 0.03 µM
[3] = second compound 0.1 µM, first compound 0.0949 µM
[4] = second compound 0.1 µM, first compound 0.3 µM
[5] = second compound 0.1 µM, first compound 0.949 µM
[6] = second compound 0.1 µM, first compound 3 µM
[7] = second compound 0.316 µM, first compound 0.00949 µM
[8] = second compound 0.316 µM, first compound 0.03 µM
[9] = second compound 0.316 µM, first compound 0.0949 µM
[10] = second compound 0.316 µM, first compound 0.3 µM
[11] = second compound 0.316 µM, first compound 0.949 µM
[12] = second compound 0.316 µM, first compound 3 µM
[13] = second compound 1 µM, first compound 0.00949 µM
[14] = second compound 1 µM, first compound 0.03 µM
[15] = second compound 1 µM, first compound 0.0949 µM
[16] = second compound 1 µM, first compound 0.3 µM
[17] = second compound 1 µM, first compound 0.949 µM
[18] = second compound 1 µM, first compound 3 µM
[19] = second compound 3.16 µM, first compound 0.00949 µM
[20] = second compound 3.16 µM, first compound 0.03 µM
[21] = second compound 3.16 µM, first compound 0.0949 µM
[22] = second compound 3.16 µM, first compound 0.3 µM
[23] = second compound 3.16 µM, first compound 0.949 µM
[24] = second compound 3.16 µM, first compound 3 µM
[25] = second compound 10 µM, first compound 0.00949 µM
[26] = second compound 10 µM, first compound 0.03 µM
[27] = second compound 10 µM, first compound 0.0949 µM
[28] = second compound 10 µM, first compound 0.3 µM
[29] = second compound 10 µM, first compound 0.949 µM
[30] = second compound 10 µM, first compound 3 µM

| SMILES | IC50 (second compound 0.1 µM) [µM] | IC50 (second compound 0.316 µM) [µM] | IC50 (second compound 1 µM) [µM] | IC50 (second compound 3.16 µM) [µM] | IC50 (second compound 10 µM) [µM] | viability, T/C [1] [%] | viability, T/C [2] [%] | viability, T/C [3] [%] | viability, T/C [4] [%] | viability, T/C [5] [%] | viability, T/C [6] [%] | viability, T/C [7] [%] | viability, T/C [8] [%] | viability, T/C [9] [%] | viability, T/C [10] [%] | viability, T/C [11] [%] | viability, T/C [12] [%] | viability, T/C [13] [%] | viability, T/C [14] [%] | viability, T/C [15] [%] | other results |
| --- | --- | --- | --- | --- | --- | --- | --- | --- | --- | --- | --- | --- | --- | --- | --- | --- | --- | --- | --- | --- | --- |
| NS(=O)(=O)OCC1CC(n2ccc3c(NC4CCc5ccccc54)ncnc32)CC1O (stereo not given) + NC1CC1c1ccc(-c2cccc(O)c2)cc1 | 0.0846 | 0.0943 | 0.0782 | 0.13 | 0.187 | 93.3 | 58 | 52 | 45.5 | 44.5 | 37.4 | 82.4 | 59.1 | 50.6 | 45.8 | 42.8 | 38.4 | 86.6 | 56.8 | 49.4 | viability, T/C [16]: 47.2%; viability, T/C [17]: 41.3%; viability, T/C [18]: 38.3%; viability, T/C [19]: 91.1%; viability, T/C [20]: 63%; viability, T/C [21]: 53.6%; viability, T/C [22]: 46.7%; viability, T/C [23]: 39.9%; viability, T/C [24]: 36.2%; viability, T/C [25]: 87.2%; viability, T/C [26]: 73.6%; viability, T/C [27]: 55.5%; viability, T/C [28]: 45%; viability, T/C [29]: 38.6%; viability, T/C [30]: 30.9% |
| Nc1ccccc1NC(=O)c1ccc(CNC(=O)OCc2cccnc2)cc1 + NC1CC1c1ccc(-c2cccc(O)c2)cc1 | 0.081 | 0.0668 | 0.0615 | 0.0652 | 0.0682 | 91.1 | 88.8 | 43.1 | 9.94 | 2.94 | 0.49 | 83.6 | 71.9 | 40.9 | 9.16 | 3.03 | 0.41 | 85.1 | 75.5 | 34.4 | viability, T/C [16]: 8.61%; viability, T/C [17]: 2.73%; viability, T/C [18]: 0.38%; viability, T/C [19]: 84.6%; viability, T/C [20]: 76%; viability, T/C [21]: 37.3%; viability, T/C [22]: 8.61%; viability, T/C [23]: 2.69%; viability, T/C [24]: 0.45%; viability, T/C [25]: 78.6%; viability, T/C [26]: 70.5%; viability, T/C [27]: 41.5%; viability, T/C [28]: 13.3%; viability, T/C [29]: 2.64%; viability, T/C [30]: 0.52% |
| O=C(C=Cc1cccc(S(=O)(=O)Nc2ccccc2)c1)NO + NC1CC1c1ccc(-c2cccc(O)c2)cc1 | 0.165 | 0.165 | 0.171 | 0.178 | 0.157 | 110 | 111 | 81.1 | 16.3 | 6.97 | 0.3 | 107 | 115 | 80.4 | 16.8 | 5.12 | 0.27 | 114 | 109 | 85.6 | viability, T/C [16]: 15.9%; viability, T/C [17]: 5.57%; viability, T/C [18]: 0.28%; viability, T/C [19]: 111%; viability, T/C [20]: 111%; viability, T/C [21]: 87.8%; viability, T/C [22]: 18.4%; viability, T/C [23]: 5.71%; viability, T/C [24]: 0.36%; viability, T/C [25]: 108%; viability, T/C [26]: 102%; viability, T/C [27]: 71.7%; viability, T/C [28]: 21.7%; viability, T/C [29]: 5.51%; viability, T/C [30]: 0.42% |
